Results as given in patent US11053213B2, “Pharmaceutical compounds” (ALMAC DISCOVERY LIMITED, priority 2016, dated 2021).

Molecular target: USP19 (Homo sapiens (Human), UniProt O94966)
Experiment: USP19 activity assay (fluorescence polarisation, Ubiquitin-Lys-TAMRA substrate)
Format: biochemical
Conditions: full-length USP19 2.5 nM, 30 min pre-incubation, Ub substrate 500 nM; average of at least two duplicate experiments

Chain of USP19 (O94966 whole entry): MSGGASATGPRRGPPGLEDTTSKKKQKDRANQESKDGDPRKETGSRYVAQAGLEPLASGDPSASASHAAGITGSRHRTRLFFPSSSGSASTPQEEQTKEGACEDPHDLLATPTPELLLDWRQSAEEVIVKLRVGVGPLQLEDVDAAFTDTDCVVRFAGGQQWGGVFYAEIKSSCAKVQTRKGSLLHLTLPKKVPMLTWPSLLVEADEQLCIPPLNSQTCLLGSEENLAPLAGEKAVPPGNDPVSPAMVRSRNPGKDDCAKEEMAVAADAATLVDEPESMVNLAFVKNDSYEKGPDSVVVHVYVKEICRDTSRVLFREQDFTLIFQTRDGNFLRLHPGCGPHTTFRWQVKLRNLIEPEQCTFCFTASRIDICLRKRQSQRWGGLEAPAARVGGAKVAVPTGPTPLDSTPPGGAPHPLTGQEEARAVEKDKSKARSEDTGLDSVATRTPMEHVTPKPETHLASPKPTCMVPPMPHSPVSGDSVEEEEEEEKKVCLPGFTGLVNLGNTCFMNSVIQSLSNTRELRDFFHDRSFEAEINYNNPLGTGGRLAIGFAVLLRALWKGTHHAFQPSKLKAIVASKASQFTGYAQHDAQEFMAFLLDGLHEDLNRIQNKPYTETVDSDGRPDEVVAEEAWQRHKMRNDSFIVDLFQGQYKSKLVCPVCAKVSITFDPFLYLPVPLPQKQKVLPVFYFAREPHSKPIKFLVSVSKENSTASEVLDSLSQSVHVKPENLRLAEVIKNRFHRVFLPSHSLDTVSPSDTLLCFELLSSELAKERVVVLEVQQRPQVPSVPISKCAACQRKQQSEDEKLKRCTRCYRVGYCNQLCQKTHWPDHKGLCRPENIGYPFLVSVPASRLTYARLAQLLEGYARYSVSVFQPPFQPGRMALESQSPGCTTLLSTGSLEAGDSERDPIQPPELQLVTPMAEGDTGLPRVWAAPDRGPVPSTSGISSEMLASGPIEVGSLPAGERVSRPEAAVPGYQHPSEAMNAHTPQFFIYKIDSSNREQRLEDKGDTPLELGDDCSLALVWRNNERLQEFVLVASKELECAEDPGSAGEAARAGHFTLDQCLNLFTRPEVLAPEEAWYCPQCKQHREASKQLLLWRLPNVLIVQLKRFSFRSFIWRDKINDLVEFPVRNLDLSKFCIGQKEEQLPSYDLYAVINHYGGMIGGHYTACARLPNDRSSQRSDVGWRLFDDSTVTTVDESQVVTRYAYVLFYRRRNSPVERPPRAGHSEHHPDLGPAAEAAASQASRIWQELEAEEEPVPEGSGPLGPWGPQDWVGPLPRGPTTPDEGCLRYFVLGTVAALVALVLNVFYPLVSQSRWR

Q: For O=C(c1cn(C[C@]2(O)CCN(C(=O)[C@H](CO)CC(F)(F)F)CC23CCCC3)c(=O)cc1-c1ccccc1)N1CCOCC1 [Example 248, 1-(((S)-10-Hydroxy-7-((S)-4,4,4-trifluoro-2-(hydroxymethyl)butanoyl)-7-azaspiro[4.5]decan-10-yl)methyl)-5-(morpholine-4-carbonyl)-4-phenylpyridin-2(1H)-one], which IC50 is on record?
A: The IC50 was under 0.5 µM.

Q: How did the IC50 turn out when CN(C)C(=O)c1cn(CC2(O)CCN(C(=O)C3CCC(F)C3)CC23CCCC3)c(=O)cc1-c1ccccc1 (stereo not drawn) [Example 177, 1-((7-(3-Fluorocyclopentane-1-carbonyl)-10-hydroxy-7-azaspiro[4.5]decan-10-yl)methyl)-N,N-dimethyl-6-oxo-4-phenyl-1,6-dihydropyridine-3-carboxamide] was run?
A: The IC50 was 50 to 250 µM.

Q: C[C@H](CC(=O)N1CCC(O)(Cn2cc(C(=O)N3CCC4(CC3)OCCO4)c(-c3ccccc3)cc2=O)CC1)c1ccccc1 [Example 64, (R)-1-((4-Hydroxy-1-(3-phenylbutanoyl)piperidin-4-yl)methyl)-4-phenyl-5-(1,4-dioxa-8-azaspiro[4.5]decane-8-carbonyl)pyridin-2(1H)-one] was tested. Which IC50 did it give?
A: Its IC50 is 5 to 50 µM.

Q: For CN(C)C(=O)c1cn(CC2(O)CCN(C(=O)C34CCC(CC3)C4)CC23CCCC3)c(=O)cc1-c1ccccc1 (stereo not drawn) [Example 179, 1-((7-(Bicyclo[2.2.1]heptane-1-carbonyl)-10-hydroxy-7-azaspiro[4.5]decan-10-yl)methyl)-N,N-dimethyl-6-oxo-4-phenyl-1,6-dihydropyridine-3-carboxamide], which IC50 is on record?
A: Its IC50 is 50 to 250 µM.

Q: How did the IC50 turn out when C[C@H](CC1CCCCC1)C(=O)N1CCC(O)(Cn2cc(C(=O)N3CCCCC3)c(-c3ccccc3)cc2=O)CC1 [Example 36, (R)-1-((1-(3-Cyclohexyl-2-methylpropanoyl)-4-hydroxypiperidin-4-yl)methyl)-4-phenyl-5-(piperidine-1-carbonyl)pyridin-2(1H)-one] was run?
A: The IC50 was 0.5 to 5 µM.

Q: With Cc1cccc(-c2cc(=O)n(CC3(O)CCN(C(=O)C[C@@H](C)c4ccccc4)CC3)cc2C(=O)N(C)C(C)C)c1 [Example 102, (R)-1-((4-Hydroxy-1-(3-phenylbutanoyl)piperidin-4-yl)methyl)-N-isopropyl-N-methyl-6-oxo-4-(m-tolyl)-1,6-dihydropyridine-3-carboxamide] as the compound, how does the IC50 read?
A: Its IC50 is 0.5 to 5 µM.

Q: Which IC50 does the source give for C[C@H](CC(=O)N1CCC(O)(Cn2cc(Br)c(-c3ccccc3)cc2=O)CC1)c1ccccc1 [Example 1, (R)-5-Bromo-1-((4-hydroxy-1-(3-phenylbutanoyl)piperidin-4-yl)methyl)-4-phenylpyridin-2(1H)-one] here?
A: Its IC50 is 50 to 250 µM.

Q: Which IC50 does the source give for CCC1(C(=O)N2CCC(O)(Cn3cnc(-c4ccccc4F)cc3=O)CC2)CCCCC1 [Example 24, 3-((1-(1-Ethylcyclohexane-1-carbonyl)-4-hydroxypiperidin-4-yl)methyl)-6-(2-fluorophenyl)pyrimidin-4(3H)-one] here?
A: The IC50 was 5 to 50 µM.

Q: C[C@H](CC(=O)N1CCC(O)(Cn2cnc(-c3ccccc3F)cc2=O)CC1)c1ccccc1 [Example 32, (R)-6-(2-Fluorophenyl)-3-((4-hydroxy-1-(3-phenylbutanoyl)piperidin-4-yl)methyl)pyrimidin-4(3H)-one] was tested. Which IC50 did it give?
A: Its IC50 is 5 to 50 µM.

Q: For C[C@H](CC1CCC1)C(=O)N1CC[C@@](O)(Cn2cc(C(=O)N(C)C)c(-c3ccccc3F)cc2=O)C2(CCCC2)C1 [Example 222, 1-(((S)-7-((R)-3-Cyclobutyl-2-methylpropanoyl)-10-hydroxy-7-azaspiro[4.5]decan-10-yl)methyl)-4-(2-fluorophenyl)-N,N-dimethyl-6-oxo-1,6-dihydropyridine-3-carboxamide], which IC50 is on record?
A: Its IC50 is under 0.5 µM.

Q: With CC(Cc1ccccc1)C(=O)N1CCC(O)(Cn2cnc(-c3ccccc3F)cc2=O)CC1 (racemic) [Example 5, (R,S)-6-(2-Fluorophenyl)-3-((4-hydroxy-1-(2-methyl-3-phenylpropanoyl)piperidin-4-yl)methyl)pyrimidin-4(3H)-one] as the compound, how does the IC50 read?
A: The IC50 was 5 to 50 µM.

Q: For C[C@H](CC1CCCCC1)C(=O)N1CCC(O)(Cn2cnc(-c3cn[nH]c3)cc2=O)C(C)(C)C1 (stereo partly drawn) [Example 132, 3-((1-((R)-3-Cyclohexyl-2-methylpropanoyl)-4-hydroxy-3,3-dimethylpiperidin-4-yl)methyl)-6-(1H-pyrazol-4-yl)pyrimidin-4(3H)-one], which IC50 is on record?
A: Its IC50 is 5 to 50 µM.

Q: With CC(=O)Nc1cccc(-c2cn(CC3(O)CCN(C(=O)C[C@@H](C)c4ccccc4)CC3)c(=O)cc2-c2ccccc2)c1 [Example 6, (R)—N-(3-(1-((4-Hydroxy-1-(3-phenylbutanoyl)piperidin-4-yl)methyl)-6-oxo-4-phenyl-1,6-dihydropyridin-3-yl)phenyl)acetamide] as the compound, how does the IC50 read?
A: The IC50 was 5 to 50 µM.

Q: Which IC50 does the source give for CC(C)(CC1CCC1)C(=O)N1CCC(O)(Cn2cnc(-c3ccccc3F)cc2=O)CC1 [Example 59, 3-((1-(3-Cyclobutyl-2,2-dimethylpropanoyl)-4-hydroxypiperidin-4-yl)methyl)-6-(2-fluorophenyl)pyrimidin-4(3H)-one] here?
A: Its IC50 is 5 to 50 µM.

Q: For CC(Cn1cccn1)C(=O)N1CCC(O)(Cn2cnc(-c3ccccc3F)cc2=O)C(C)(C)C1 (stereo not drawn) [Example 150, 6-(2-Fluorophenyl)-3-((4-hydroxy-3,3-dimethyl-1-(2-methyl-3-(1H-pyrazol-1-yl)propanoyl)piperidin-4-yl)methyl)pyrimidin-4(3H)-one], which IC50 is on record?
A: Its IC50 is 50 to 250 µM.

Q: CC(C)CNc1cc(=O)n(CC2(O)CCN(C(=O)C[C@@H](C)c3ccccc3)CC2)cn1 [Example 35, (R)-3-((4-Hydroxy-1-(3-phenylbutanoyl)piperidin-4-yl)methyl)-6-(isobutylamino)pyrimidin-4(3H)-one] was tested. Which IC50 did it give?
A: The IC50 was 50 to 250 µM.

Q: For CC[C@@H](C)C(=O)N1CCC(O)(Cn2cc(C(=O)N(C)C)c(-c3ccccc3)cc2=O)C2(CCCC2)C1 (stereo partly drawn) [Example 148, 1-((10-Hydroxy-7-((R)-2-methylbutanoyl)-7-azaspiro[4.5]decan-10-yl)methyl)-N,N-dimethyl-6-oxo-4-phenyl-1,6-dihydropyridine-3-carboxamide], which IC50 is on record?
A: Its IC50 is 5 to 50 µM.

Q: Which IC50 does the source give for CC(C)N(C)C(=O)c1cn(CC2(O)CCN(C(=O)C3(C)CCc4ccccc4C3)CC2)c(=O)cc1-c1ccccc1F (racemic) [Example 14, (R,S)-4-(2-Fluorophenyl)-1-((4-hydroxy-1-(2-methyl-1,2,3,4-tetrahydronaphthalene-2-carbonyl)piperidin-4-yl)methyl)-N-isopropyl-N-methyl-6-oxo-1,6-dihydropyridine-3-carboxamide] here?
A: The IC50 was 0.5 to 5 µM.

Q: For C[C@H](CC1CCCCC1)C(=O)N1CCC(O)(Cn2cc(-c3ccccn3)c(-c3ccccc3F)cc2=O)C(C)(C)C1 (stereo partly drawn) [Example 154, 1′-((1-((R)-3-Cyclohexyl-2-methylpropanoyl)-4-hydroxy-3,3-dimethylpiperidin-4-yl)methyl)-4′-(2-fluorophenyl)-[2,3′-bipyridin]-6′(1′H)-one], which IC50 is on record?
A: The IC50 was 5 to 50 µM.

Q: How did the IC50 turn out when C[C@H](CC(F)(F)F)C(=O)N1CC[C@@](O)(Cn2cc(C(=O)N3CCNCC3)c(-c3ccccc3F)cc2=O)C2(CCCC2)C1 [Example 225, 4-(2-Fluorophenyl)-1-(((S)-10-hydroxy-7-((R)-4,4,4-trifluoro-2-methylbutanoyl)-7-azaspiro[4.5]decan-10-yl)methyl)-5-(piperazine-1-carbonyl)pyridin-2(1H)-one] was run?
A: The IC50 was 0.5 to 5 µM.

Q: Which IC50 does the source give for CC(C)N(C)C(=O)c1cn(CC2(O)CCN(C(=O)C[C@@H](C)c3ccccc3)CC2)c(=O)cc1-c1ccccc1F [Example 90, (R)-4-(2-Fluorophenyl)-1-((4-hydroxy-1-(3-phenylbutanoyl)piperidin-4-yl)methyl)-N-isopropyl-N-methyl-6-oxo-1,6-dihydropyridine-3-carboxamide] here?
A: Its IC50 is 0.5 to 5 µM.
